5 compounds from article PMC4532999 (Scientific Reports, 2015) can be followed below.

One data set relates to HeLa cells. As for the experimental part:
Since BCR-ABL localizes predominantly in the cytoplasm, it is important to evaluate whether the designed peptides can be internalized into cells.
Human cervical cancer cells (HeLa) were seeded in 175-cm^2 tissue culture flasks (Falcon), in Dulbecco’s Modified Eagle’s Medium (DMEM) supplemented with 10% fetal bovine serum, 100 U/mL penicillin and […] streptomycin, until 80% confluent.
Cytotoxicity of the MTAbl peptides towards HeLa cells was evaluated before the cell internalization assay. The mammalian cell cytotoxicity assay was conducted using a method described earlier. HeLa cells were seeded the day before the assay in 96-well tissue culture-treated plates (2.5 × 10^3 cells/well). […] Peptide solutions were diluted 10-fold with serum-free medium and incubated with cells in triplicates for 2 h. […] Following incubation the peptide solutions were removed and aliquots of 10 μL of 0.02% (w/v) sterile resazurin (resazurin sodium salt, Sigma) were added to each well containing 100 μL of fresh medium. […] The absorbance of the plates was measured on a plate reader at 540 and 620 nm.

A short description of the next data set: Serum stability assay. The note with it: for remaining at 24 h, 30 μM: male, human, serum; for stability in human serum (in words; comparison to MCoTI-II at 24 h): 100% human serum, 37 °C, one-way ANOVA, three replicates. As for the experimental part:
All peptides were tested at a final concentration of 30 μM in 100% human serum. […] Reactions were stopped at the stipulated times and the serum proteins in each sample were denatured and precipitated, followed by centrifugation at 17,000 g for 10 min to separate the serum proteins from peptide samples. […] The elution time for each peptide was determined by the PBS control from 0 time point. The percentage of peptide remaining at each time point was calculated using the height of the serum-treated peptide peak from time 0 as 100% recovery.

A further data set addresses Abl kinase (Homo sapiens, UniProt P00519). Nature of the data set: BacKin assay, inhibition of phosphorylation of abltide displayed on E. coli. The format is biochemical. Conditions: 32 μM peptide, Abl kinase 0.2 U/mL, 37 °C, 30 min.
A short description of data set [1]: 100% human male AB serum (Sigma). Conditions: 37 °C, up to 24 h.

Positions of bridges follow the written chain, without caps; N, C: chain ends. Residues, ends and D or L forms follow the SMILES beside them. Bounds are passed on as bounds.

Abl kinase, sequence (P00519 whole entry): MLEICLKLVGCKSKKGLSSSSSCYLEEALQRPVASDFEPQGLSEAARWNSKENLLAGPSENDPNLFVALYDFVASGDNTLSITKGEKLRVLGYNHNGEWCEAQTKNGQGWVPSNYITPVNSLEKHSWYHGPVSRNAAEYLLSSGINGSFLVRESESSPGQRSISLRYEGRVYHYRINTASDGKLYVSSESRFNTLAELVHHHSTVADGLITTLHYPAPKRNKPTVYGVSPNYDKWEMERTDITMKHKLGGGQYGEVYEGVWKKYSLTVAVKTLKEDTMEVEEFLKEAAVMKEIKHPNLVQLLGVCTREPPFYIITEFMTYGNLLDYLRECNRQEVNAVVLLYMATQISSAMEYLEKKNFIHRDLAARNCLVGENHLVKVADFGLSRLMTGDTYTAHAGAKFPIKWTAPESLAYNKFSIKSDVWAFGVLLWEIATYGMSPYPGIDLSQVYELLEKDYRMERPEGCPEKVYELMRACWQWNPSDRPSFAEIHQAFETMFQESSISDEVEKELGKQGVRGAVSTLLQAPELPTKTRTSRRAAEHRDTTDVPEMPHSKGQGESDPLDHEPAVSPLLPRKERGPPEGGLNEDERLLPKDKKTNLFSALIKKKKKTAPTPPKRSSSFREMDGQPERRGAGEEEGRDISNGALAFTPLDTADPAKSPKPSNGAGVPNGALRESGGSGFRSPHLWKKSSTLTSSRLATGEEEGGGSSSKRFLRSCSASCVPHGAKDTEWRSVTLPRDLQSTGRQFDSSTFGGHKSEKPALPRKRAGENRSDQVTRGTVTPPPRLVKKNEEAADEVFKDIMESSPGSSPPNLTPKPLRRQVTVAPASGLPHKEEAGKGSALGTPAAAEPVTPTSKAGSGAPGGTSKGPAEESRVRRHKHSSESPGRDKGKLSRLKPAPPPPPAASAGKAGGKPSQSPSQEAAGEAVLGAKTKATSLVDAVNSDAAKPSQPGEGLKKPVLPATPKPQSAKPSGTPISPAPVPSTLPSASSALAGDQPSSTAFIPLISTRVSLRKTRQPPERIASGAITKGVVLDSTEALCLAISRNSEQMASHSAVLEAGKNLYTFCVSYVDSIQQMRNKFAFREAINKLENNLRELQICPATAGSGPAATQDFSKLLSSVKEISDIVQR

Consider `CC[C@H](C)[C@@H]1NC(=O)[C@H](C)NC(=O)[C@H](CCC(=O)O)NC(=O)CNC(=O)[C@@H]2CSSC[C@@H]3NC(=O)[C@H](CC(=O)O)NC(=O)[C@H](CO)NC(=O)[C@H](CC(=O)O)NC(=O)[C@H](CCCNC(=N)N)NC(=O)[C@H](CCCNC(=N)N)NC(=O)[C@@H]4CSSC[C@H](NC(=O)[C@H]([C@@H](C)CC)NC(=O)[C@H](CSSC[C@H](NC(=O)[C@H](CCCNC(=N)N)NC(=O)[C@H](C)NC(=O)[C@H](Cc5ccccc5)NC(=O)[C@@H]5CCCN5C(=O)[C@H](C)NC(=O)[C@H](C)NC(=O)[C@H](Cc5ccc(O)cc5)NC1=O)C(=O)N1CCC[C@H]1C(=O)N[C@@H](CCCCN)C(=O)N[C@@H]([C@@H](C)CC)C(=O)N[C@@H](CC(C)C)C(=O)N[C@@H](CCCCN)C(=O)N[C@@H](CCCCN)C(=O)N4)NC(=O)[C@H](C)NC(=O)CNC(=O)[C@@H]1CCCN1C3=O)C(=O)N[C@@H](CCCNC(=N)N)C(=O)NCC(=O)N[C@@H](CC(N)=O)C(=O)NCC(=O)N[C@@H](Cc1ccc(O)cc1)C(=O)N2` [MTAbl06] (cyclo(AAPFARCPKILKKCRRDSDCPGACICRGNGYCGEAIY); disulfide 7-24, 14-26, 20-32), for which the “concentration up to which no cytotoxicity towards HeLa cells” value in the data set with HeLa cells is above 64 µM. The compound further came in with an amount remaining at 24 h, 30 μM in “Serum stability assay” above 75%. At Abl kinase, the “percentage of Abl kinase inhibition” value is given as ~ 90%.

With `CC[C@H](C)[C@@H]1NC(=O)[C@H](C)NC(=O)[C@H](CCC(=O)O)NC(=O)CNC(=O)[C@@H]2CSSC[C@@H]3NC(=O)[C@H](CC(=O)O)NC(=O)[C@H](CO)NC(=O)[C@H](CC(=O)O)NC(=O)[C@H](CCCNC(=N)N)NC(=O)[C@H](CCCNC(=N)N)NC(=O)[C@@H]4CSSC[C@H](NC(=O)[C@H]([C@@H](C)CC)NC(=O)[C@H](CSSC[C@H](NC(=O)[C@H](CCCNC(=N)N)NC(=O)[C@H](CCCNC(=N)N)NC(=O)[C@H](CCCNC(=N)N)NC(=O)[C@H](C)NC(=O)[C@H](Cc5ccccc5)NC(=O)[C@@H]5CCCN5C(=O)[C@H](C)NC(=O)[C@H](C)NC(=O)[C@H](Cc5ccc(O)cc5)NC1=O)C(=O)N1CCC[C@H]1C(=O)N[C@@H](CCCCN)C(=O)N[C@@H]([C@@H](C)CC)C(=O)N[C@@H](CC(C)C)C(=O)N[C@@H](CCCCN)C(=O)N[C@@H](CCCCN)C(=O)N4)NC(=O)[C@H](C)NC(=O)CNC(=O)[C@@H]1CCCN1C3=O)C(=O)N[C@@H](CCCNC(=N)N)C(=O)NCC(=O)N[C@@H](CC(N)=O)C(=O)NCC(=O)N[C@@H](Cc1ccc(O)cc1)C(=O)N2` [MTAbl07] (cyclo(AAPFARRRCPKILKKCRRDSDCPGACICRGNGYCGEAIY); disulfide 9-26, 16-28, 22-34), the “concentration up to which no cytotoxicity towards HeLa cells” value with HeLa cells is above 64 µM. Moreover, in the data set “Serum stability assay”, the “stability in human serum (in words; comparison to MCoTI-II at 24 h)” value (“stability in human serum” below) is on record as “as stable as MCoTI-II” and the share remaining at 24 h, 30 μM is above 75%.

For the compound `CC[C@H](C)[C@@H]1NC(=O)[C@H](C)NC(=O)[C@H](CCC(=O)O)NC(=O)[C@@H]2CSSC[C@@H]3NC(=O)[C@H](C)NC(=O)CNC(=O)[C@@H]4CCCN4C(=O)[C@@H]4CSSC[C@H](NC(=O)[C@H](Cc5ccc(O)cc5)NC(=O)CNC(=O)[C@H](CC(N)=O)NC(=O)CNC(=O)[C@H](CCCNC(=N)N)NC(=O)[C@H](CSSC[C@H](NC(=O)[C@H](CCCCN)NC(=O)[C@@H]5CCCN5C(=O)[C@H](C)NC(=O)[C@H](C)NC(=O)[C@H](Cc5ccc(O)cc5)NC1=O)C(=O)N[C@@H](CCCNC(=N)N)C(=O)N[C@@H](CCCNC(=N)N)C(=O)N[C@@H](CC(=O)O)C(=O)N[C@@H](CO)C(=O)N[C@@H](CC(=O)O)C(=O)N4)NC(=O)[C@H]([C@@H](C)CC)NC3=O)C(=O)NCC(=O)N[C@@H](CO)C(=O)NCC(=O)N[C@@H](CO)C(=O)N[C@@H](CC(=O)O)C(=O)NCC(=O)NCC(=O)N[C@@H](C(C)C)C(=O)N2` [MTAbl09] (cyclo(AAPKCRRDSDCPGACICRGNGYCGSGSDGGVCEAIY); disulfide 5-17, 11-23, 15-32), in the data set with HeLa cells, the “concentration up to which no cytotoxicity towards HeLa cells” value is above 64 µM. Besides, in “Serum stability assay”, the “stability in human serum” value is recorded as “statistically more stable than MCoTI-II” and the amount remaining at 24 h, 30 μM is above 75%.

Consider `CC[C@H](C)[C@@H]1NC(=O)[C@H](C)NC(=O)[C@H](CCC(=O)O)NC(=O)CNC(=O)[C@@H]2CSSC[C@@H]3NC(=O)[C@H](CC(=O)O)NC(=O)[C@H](CO)NC(=O)[C@H](CC(=O)O)NC(=O)[C@H](CCCNC(=N)N)NC(=O)[C@H](CCCNC(=N)N)NC(=O)[C@@H]4CSSC[C@H](NC(=O)[C@H]([C@@H](C)CC)NC(=O)[C@H](CSSC[C@H](NC(=O)[C@H](CCCNC(=N)N)NC(=O)[C@H](C)NC(=O)[C@H](Cc5ccccc5)NC(=O)[C@@H]5CCCN5C(=O)[C@H](C)NC(=O)[C@H](C)NC(=O)[C@H](Cc5ccc(O)cc5)NC1=O)C(=O)N[C@@H](CCC(=O)O)C(=O)N[C@@H](C)C(=O)N[C@@H]([C@@H](C)CC)C(=O)N[C@@H](Cc1ccc(O)cc1)C(=O)N[C@@H](C)C(=O)N[C@@H](C)C(=O)N1CCC[C@H]1C(=O)N[C@@H](CCCCN)C(=O)N4)NC(=O)[C@H](C)NC(=O)CNC(=O)[C@@H]1CCCN1C3=O)C(=O)N[C@@H](CCCNC(=N)N)C(=O)NCC(=O)N[C@@H](CC(N)=O)C(=O)NCC(=O)N[C@@H](Cc1ccc(O)cc1)C(=O)N2` [MTAbl13] (cyclo(AAPFARCEAIYAAPKCRRDSDCPGACICRGNGYCGEAIY); disulfide 7-26, 16-28, 22-34), for which, in the data set on HeLa cells, the “concentration up to which no cytotoxicity towards HeLa cells” value is above 64 µM. For the same compound, in “Serum stability assay”, the “stability in human serum” value is “statistically more stable than MCoTI-II” and the share remaining at 24 h, 30 μM was above 75%.

Turning to CPKILKKCRRDSDCPGACICRGNGYCGEAIY*AAPFAR, the fragment found entry in data set [1] is given as “MTAbl06 (i.e. dephosphorylated MTAbl12)”.
